The record followed here is article PMC6901909, “Synergy Pattern of Short Cationic Antimicrobial Peptides Against Multidrug-Resistant Pseudomonas aeruginosa” (Frontiers in Microbiology, 2019).

Common to all, as to assay: microbe, parasite or virus in culture
What all share (type): cell-based, Pseudomonas aeruginosa

For one assay, the system named is MDR P. aeruginosa PA 910. The note with it: MDR PA 910, 18 h. On the procedure: (§1) We selected six different P. aeruginosa isolates that were described as MDR and had been isolated from clinical and municipal waste water ([Schwartz et al., 2006]). The minimal inhibitory concentration (MIC) was determined in a microdilution assay using Mueller-Hinton (MH) broth following a previously published protocol ([Wiegand et al., 2008]). Briefly, a twofold serial dilution of the antibiotics and peptides were prepared and added to a bacteria solution, resulting in 2–5 10^5 CFU/ml. The microtiter plates (polypropylene, Corning) were incubated for 18 h at 37°C and MICs were taken visually.

The subject of another assay is P. aeruginosa PA01-wt. The conditions noted are these: -wt, 18 h. On the procedure: as §1
In a further assay the test system is MDR P. aeruginosa PA 919. The conditions noted are these: MDR PA 919, 18 h. As to the method:
as §1

A further assay concerns MDR P. aeruginosa PA253. The note with it: MDR PA253, 18 h. On the procedure: as §1

Structures are written as SMILES. Converted amounts (≈) assume the structure as drawn. Peptide text beside a SMILES is read from it.

As to `CC[C@H](C)[C@H](NC(=O)[C@@H](N)Cc1ccccc1)C(=O)N[C@@H](CCCCN)C(=O)N[C@@H](CCCNC(=N)N)C(=O)N[C@@H](CCCCN)C(=O)N[C@@H](CO)C(=O)N[C@@H](CCCNC(=N)N)C(=O)N[C@@H](Cc1c[nH]c2ccccc12)C(=O)N[C@@H](Cc1c[nH]c2ccccc12)C(=O)N[C@@H](CCCCN)C(=O)N[C@@H](Cc1c[nH]c2ccccc12)C(=O)N[C@@H](CCCNC(=N)N)C(=O)N[C@H](C(N)=O)[C@@H](C)O` [Indopt 6] (H-FIKRKSRWWKWRT-NH2), in the assay with MDR P. aeruginosa PA 910, the “MIC against PA910 in μM (peptides, Table 4)” value (“MIC against PA910 in μM” below) came out at 8 µM (≈ 15 µg/mL). Further, the “MIC against PA01 wt” value in the assay on P. aeruginosa PA01-wt turned out to be 4 µM (≈ 7.51 µg/mL). Also, the “MIC against MDR isolates of PA, PA919” value with MDR P. aeruginosa PA 919 was 32 µM. Also, the “MIC against MDR isolates of PA, PA253” value in the assay with MDR P. aeruginosa PA253 is 8 to 16 µM.

As for `CC[C@H](C)[C@H](N)C(=O)N[C@@H](CC(C)C)C(=O)N[C@@H](CCCCN)C(=O)N[C@@H](Cc1c[nH]c2ccccc12)C(=O)N[C@@H](CCCCN)C(=O)N[C@@H](CCCNC(=N)N)C(=O)N[C@@H](CCCCN)C(=O)N[C@@H](Cc1c[nH]c2ccccc12)C(=O)N[C@@H](Cc1c[nH]c2ccccc12)C(=O)N[C@@H](CCCCN)C(=O)N[C@@H](Cc1c[nH]c2ccccc12)C(=O)N[C@@H](Cc1ccccc1)C(=O)N[C@@H](CCCNC(=N)N)C(N)=O` [Indopt 7] (H-ILKWKRKWWKWFR-NH2), the “MIC against PA910 in μM” value in the assay with MDR P. aeruginosa PA 910 worked out at 4 µM (≈ 7.84 µg/mL). Also, the “MIC against PA01 wt” value in the assay with P. aeruginosa PA01-wt turned out to be 2 µM (≈ 3.92 µg/mL). The “MIC against MDR isolates of PA, PA919” value with MDR P. aeruginosa PA 919 came to 32 µM. For the same compound, the “MIC against MDR isolates of PA, PA253” value against MDR P. aeruginosa PA253 was found to be 8 µM.

`CC[C@H](C)[C@H](N)C(=O)N[C@@H](CC(C)C)C(=O)N[C@@H](CCCCN)C(=O)N[C@@H](Cc1c[nH]c2ccccc12)C(=O)N[C@@H](CCCCN)C(=O)N[C@H](C(=O)N[C@@H](Cc1ccccc1)C(=O)N[C@@H](CCCCN)C(=O)N[C@@H](Cc1c[nH]c2ccccc12)C(=O)N[C@@H](CCCCN)C(=O)N[C@@H](Cc1c[nH]c2ccccc12)C(=O)N[C@@H](Cc1ccccc1)C(=O)N[C@@H](CCCNC(=N)N)C(N)=O)[C@@H](C)CC` [Indopt 10] (H-ILKWKIFKWKWFR-NH2): in the assay with MDR P. aeruginosa PA 910, the “MIC against PA910 in μM” value came out at 4 µM (≈ 7.51 µg/mL). Besides, in the assay on P. aeruginosa PA01-wt, the “MIC against PA01 wt” value is 2 µM (≈ 3.76 µg/mL). Further, the “MIC against MDR isolates of PA, PA919” value in the assay on MDR P. aeruginosa PA 919 was 32 µM. For the same compound, the “MIC against MDR isolates of PA, PA253” value with MDR P. aeruginosa PA253 fell in the range of 8 to 16 µM.

On to `CC[C@H](C)[C@H](N)C(=O)N[C@@H](CC(C)C)C(=O)N[C@@H](CCCCN)C(=O)N[C@@H](Cc1c[nH]c2ccccc12)C(=O)N[C@@H](CCCCN)C(=O)N[C@@H](CCSC)C(=O)N[C@@H](Cc1ccccc1)C(=O)N[C@@H](CCCCN)C(=O)N[C@@H](Cc1c[nH]c2ccccc12)C(=O)N[C@@H](CCCCN)C(=O)N[C@@H](Cc1c[nH]c2ccccc12)C(=O)N[C@@H](Cc1ccccc1)C(=O)N[C@@H](CCCNC(=N)N)C(N)=O` [Indopt 12] (H-ILKWKMFKWKWFR-NH2), for which the “MIC against PA910 in μM” value in the assay on MDR P. aeruginosa PA 910 turned out to be 4 µM (≈ 7.59 µg/mL). Besides, the “MIC against PA01 wt” value in the assay on P. aeruginosa PA01-wt is 2 µM (≈ 3.79 µg/mL). In the assay with MDR P. aeruginosa PA 919, the “MIC against MDR isolates of PA, PA919” value turned out to be 16 µM. Besides, in the assay on MDR P. aeruginosa PA253, the “MIC against MDR isolates of PA, PA253” value was 16 µM.

As for `CC(C)[C@H](NC(=O)[C@H](Cc1c[nH]c2ccccc12)NC(=O)[C@H](CCCNC(=N)N)NC(=O)[C@H](Cc1c[nH]c2ccccc12)NC(=O)[C@H](Cc1c[nH]c2ccccc12)NC(=O)[C@H](CCCNC(=N)N)NC(=O)[C@@H](N)CCCNC(=N)N)C(=O)N[C@H](C(=O)N[C@@H](Cc1c[nH]c2ccccc12)C(N)=O)C(C)C` [LOP2] (H-RRWWRWVVW-NH2), the “MIC against PA910 in μM” value in the assay on MDR P. aeruginosa PA 910 was determined as 8 µM (≈ 11.4 µg/mL). Moreover, the “MIC against PA01 wt” value against P. aeruginosa PA01-wt is 4 µM (≈ 5.71 µg/mL). Besides, in the assay on MDR P. aeruginosa PA 919, the “MIC against MDR isolates of PA, PA919” value stood at 2 µM. The “MIC against MDR isolates of PA, PA253” value against MDR P. aeruginosa PA253 is 8 µM.

As to `CC[C@H](C)[C@H](NC(=O)[C@H](CCCNC(=N)N)NC(=O)[C@H](Cc1c[nH]c2ccccc12)NC(=O)[C@H](CCCNC(=N)N)NC(=O)[C@H](CCCNC(=N)N)NC(=O)[C@@H](N)CCCCN)C(=O)N[C@@H](Cc1c[nH]c2ccccc12)C(=O)N[C@@H](CC(C)C)C(=O)N[C@H](C(N)=O)C(C)C` [LOP3] (H-KRRWRIWLV-NH2), the “MIC against PA910 in μM” value against MDR P. aeruginosa PA 910 is 8 µM (≈ 10.5 µg/mL). Besides, the “MIC against PA01 wt” value in the assay on P. aeruginosa PA01-wt came out at 4 µM (≈ 5.25 µg/mL). For the same compound, in the assay with MDR P. aeruginosa PA 919, the “MIC against MDR isolates of PA, PA919” value is 4 µM. Besides, in the assay on MDR P. aeruginosa PA253, the “MIC against MDR isolates of PA, PA253” value lay in the range of 4 to 8 µM.

`CC[C@H](C)[C@H](NC(=O)[C@@H](NC(=O)[C@H](CCCNC(=N)N)NC(=O)[C@H](Cc1c[nH]c2ccccc12)NC(=O)[C@H](CCCNC(=N)N)NC(=O)[C@@H](N)CCCNC(=N)N)C(C)C)C(=O)N[C@H](C(=O)N[C@@H](CCCCN)C(=O)N[C@@H](Cc1c[nH]c2ccccc12)C(N)=O)C(C)C` [LOP4] (H-RRWRVIVKW-NH2): in the assay on MDR P. aeruginosa PA 910, the “MIC against PA910 in μM” value came to 4 µM (≈ 5.19 µg/mL). The “MIC against PA01 wt” value against P. aeruginosa PA01-wt was 4 µM (≈ 5.19 µg/mL). Moreover, the “MIC against MDR isolates of PA, PA919” value against MDR P. aeruginosa PA 919 is 4 µM. In addition, the “MIC against MDR isolates of PA, PA253” value with MDR P. aeruginosa PA253 is 8 µM.

Take `CC[C@H](C)[C@H](NC(=O)[C@H](Cc1c[nH]c2ccccc12)NC(=O)[C@H](CCCCN)NC(=O)[C@H](CCCCN)NC(=O)[C@H](CC(C)C)NC(=O)[C@H](Cc1c[nH]c2ccccc12)NC(=O)[C@H](CCCCN)NC(=O)[C@@H](N)Cc1c[nH]c2ccccc12)C(=O)N[C@@H](CCCCN)C(N)=O` [LOP5] (H-WKWLKKWIK-NH2): the “MIC against PA910 in μM” value against MDR P. aeruginosa PA 910 came to 8 µM (≈ 10.5 µg/mL). In addition, the “MIC against PA01 wt” value against P. aeruginosa PA01-wt is 4 µM (≈ 5.26 µg/mL). Besides, the “MIC against MDR isolates of PA, PA919” value against MDR P. aeruginosa PA 919 is 8 µM. The “MIC against MDR isolates of PA, PA253” value against MDR P. aeruginosa PA253 came out at 8 µM.

As to `CC[C@H](C)[C@H](NC(=O)[C@H](CCCNC(=N)N)NC(=O)[C@H](CCCNC(=N)N)NC(=O)[C@H](CC(C)C)NC(=O)[C@@H](N)CCCNC(=N)N)C(=O)N[C@H](C(=O)N[C@H](C(=O)N[C@H](C(=O)N[C@@H](CCCNC(=N)N)C(=O)N[C@H](C(=O)N[C@@H](C)C(=O)N[C@@H](CCCNC(=N)N)C(N)=O)C(C)C)[C@@H](C)CC)C(C)C)C(C)C` [Peptide R3] (H-RLRRIVVIRVAR-NH2), the “MIC against PA910 in μM” value with MDR P. aeruginosa PA 910 is 32 µM (≈ 48.2 µg/mL). Moreover, the “MIC against PA01 wt” value with P. aeruginosa PA01-wt was 16 µM (≈ 24.1 µg/mL). Moreover, in the assay on MDR P. aeruginosa PA 919, the “MIC against MDR isolates of PA, PA919” value was 16 µM. Further, the “MIC against MDR isolates of PA, PA253” value against MDR P. aeruginosa PA253 turned out to be 16 µM.

`CC[C@H](C)[C@H](NC(=O)[C@H](CCCNC(=N)N)NC(=O)[C@H](C)NC(=O)[C@H](CC(C)C)NC(=O)[C@@H](N)CCCNC(=N)N)C(=O)N[C@H](C(=O)N[C@H](C(=O)N[C@H](C(=O)N[C@@H](CCCNC(=N)N)C(=O)N[C@@H](Cc1c[nH]c2ccccc12)C(=O)N[C@@H](C)C(=O)N[C@@H](CCCNC(=N)N)C(N)=O)[C@@H](C)CC)C(C)C)C(C)C` [Peptide W10] (H-RLARIVVIRWAR-NH2): the “MIC against MDR isolates of PA, PA910” value in the assay on MDR P. aeruginosa PA 910 is 16 µM. Further, the “MIC against PA01 wt” value against P. aeruginosa PA01-wt came to 16 µM (≈ 24.1 µg/mL). The “MIC against MDR isolates of PA, PA919” value with MDR P. aeruginosa PA 919 was 16 µM. Besides, in the assay with MDR P. aeruginosa PA253, the “MIC against MDR isolates of PA, PA253” value amounted to 16 µM.
